Source: the supplement of paper PMC10307832

How the values were obtained:
Assay in all cases: relative viability (nuclei count vs DMSO), 5 days (fraction); higher = more cells survive
GSK126 + Trametinib = compound: CC[C@H](C)N1C=C(C2=C(C=C(C=C21)C3=CN=C(C=C3)N4CCNCC4)C(=O)NCC5=C(C=C(NC5=O)C)C)C [GSK126] + CC(=O)Nc1cccc(-n2c(=O)n(C3CC3)c(=O)c3c(Nc4ccc(I)cc4F)n(C)c(=O)c(C)c32)c1 [Trametinib] (partner 0.02 µM)
Method in brief: (§1)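 Dosing by pin tool came one day after lung cancer cell lines were seeded in 1536-well plates, using either one drug or a fixed anchor-drug dose plus five library-drug doses (not always all listed) in √10 steps. After 5 days, nuclei were counted on 4× images. Relative viability is treated-well nuclei count divided by vehicle-well nuclei count, and values are medians of duplicate plates.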

Carboplatin + Alpelisib = compound: C1CC(C1)(C(=O)O)C(=O)O.[NH2-].[NH2-].[Pt+2] [Carboplatin] + Cc1nc(NC(=O)N2CCC[C@H]2C(N)=O)sc1-c1ccnc(C(C)(C)C(F)(F)F)c1 [Alpelisib] (partner 2 µM)
Method in brief: as §1

GSK126 + Lapatinib = compound: CC[C@H](C)N1C=C(C2=C(C=C(C=C21)C3=CN=C(C=C3)N4CCNCC4)C(=O)NCC5=C(C=C(NC5=O)C)C)C [GSK126] + CS(=O)(=O)CCNCc1ccc(-c2ccc3ncnc(Nc4ccc(OCc5cccc(F)c5)c(Cl)c4)c3c2)o1 [Lapatinib] (partner 2 µM)
Method in brief: as §1

Carboplatin + Olaparib = compound: C1CC(C1)(C(=O)O)C(=O)O.[NH2-].[NH2-].[Pt+2] [Carboplatin] + O=C(c1cc(Cc2n[nH]c(=O)c3ccccc23)ccc1F)N1CCN(C(=O)C2CC2)CC1 [Olaparib] (partner 8 µM)
Method in brief: as §1

Cell Line	relative viability (GSK126 + Trametinib; first compound 0.08 µM)	relative viability (GSK126 + Trametinib; first compound 0.253 µM)	relative viability (GSK126 + Trametinib; first compound 0.8 µM)	relative viability (GSK126 + Trametinib; first compound 2.53 µM)	relative viability (GSK126 + Trametinib; first compound 8 µM)	relative viability (Carboplatin + Alpelisib; first compound 0.08 µM)	relative viability (Carboplatin + Alpelisib; first compound 0.253 µM)	relative viability (Carboplatin + Alpelisib; first compound 0.8 µM)	relative viability (Carboplatin + Alpelisib; first compound 2.53 µM)	relative viability (Carboplatin + Alpelisib; first compound 8 µM)	relative viability (GSK126 + Lapatinib; first compound 0.08 µM)	relative viability (GSK126 + Lapatinib; first compound 0.253 µM)	relative viability (GSK126 + Lapatinib; first compound 0.8 µM)	relative viability (GSK126 + Lapatinib; first compound 2.53 µM)	relative viability (GSK126 + Lapatinib; first compound 8 µM)	relative viability (Carboplatin + Olaparib; first compound 0.08 µM)	relative viability (Carboplatin + Olaparib; first compound 0.253 µM)	relative viability (Carboplatin + Olaparib; first compound 0.8 µM)	relative viability (Carboplatin + Olaparib; first compound 2.53 µM)	relative viability (Carboplatin + Olaparib; first compound 8 µM)
NCI-H661	0.632	0.548	0.523	0.596	0.687	0.567	0.66	0.703	0.595	0.648	0.417	0.574	0.441	0.572	0.361	0.73	0.794	0.675	0.737	0.729
NCI-H727	0.4	0.4	0.424	0.39	0.412	0.76	0.483	0.509	0.514	0.363	0.746	0.81	0.984	0.884	1.06	0.75	0.586	0.862	0.646	0.667
NCI-H838	0.58	0.51	0.437	0.477	0.483	1.09	1.07	0.953	0.995	0.979	1.12	0.938	0.882	0.865	0.906	0.773	0.746	0.757	0.683	0.575
NCI-H1355	0.435	0.412	0.4	0.421	0.468	0.885	0.866	0.843	0.687	0.721	1.04	1.07	0.989	0.967	0.992	0.808	0.734	0.677	0.694	0.595
NCI-H1395	1.07	0.955	1.05	0.994	0.964	1.18	1.03	0.768	0.68	0.578	1.04	0.973	1.3	1.14	1.03	0.509	0.467	0.505	0.41	0.46
NCI-H1437	0.507	0.528	0.494	0.459	0.501	0.988	0.989	0.929	0.947	0.828	0.95	0.729	0.776	0.748	0.852	0.646	0.675	0.578	0.623	0.594
NCI-H1651	0.794	0.86	0.811	0.844	0.866	0.846	1.1	0.907	0.876	0.573	0.896	0.834	0.805	0.843	0.894	0.191	0.199	0.185	0.166	0.161
NCI-H1666	0.859	0.998	0.841	0.818	0.838	1.16	0.909	0.855	0.773	0.543	0.635	0.608	0.724	0.704	0.695	0.741	0.704	0.707	0.672	0.657
NCI-H1734	0.801	0.63	0.662	0.731	0.766	0.647	0.757	0.632	0.67	0.589	1.07	1	1.03	1.18	1.15	0.598	0.623	0.522	0.574	0.423
NCI-H1755	0.771	0.736	0.777	0.826	0.793	0.928	0.894	0.97	0.932	0.894	1.1	1.07	1.04	1.01	1.1	0.861	0.895	0.88	0.854	0.784
NCI-H1792	0.492	0.397	0.43	0.405	0.406	0.802	0.634	0.515	0.444	0.6	0.973	0.894	0.868	0.982	0.943	0.72	0.548	0.412	0.289	0.265
NCI-H1793	0.432	0.423	0.457	0.384	0.338	0.874	0.645	0.561	0.751	0.588	0.867	0.467	0.647	0.583	0.629	0.802	0.909	0.82	0.675	1.04
NCI-H1915	0.344	0.29	0.313	0.315	0.332	1.05	1.06	0.966	0.893	0.675	1.08	0.97	1.03	0.978	0.993	0.253	0.257	0.225	0.22	0.21
NCI-H1944	0.415	0.373	0.435	0.443	0.413	0.98	0.857	0.813	0.701	0.643	1.04	0.724	0.859	0.865	0.989	0.388	0.469	0.369	0.367	0.366
NCI-H1975	0.377	0.31	0.362	0.369	0.352	0.669	0.655	0.728	0.598	0.666	0.952	0.898	0.916	0.852	0.888	0.961	0.79	0.735	0.747	0.747
